Results as given in US20110166348A1, “NOVEL SALT OF MORPHOLINE DERIVATIVE” (ASTELLAS PHARMA INC., priority 2008, published 2011).
Values joined by “and” are separate entries in the source; they are usually repeats but may differ in a detail not shown here. Equal values may be shown once. Where a name gives a salt, the structure may show the parent alone. Read-outs that look alike come from different tables or passages of the source.

Columns and labels:
[1] = Evaluation of hygroscopicity (dynamic steam adsorption/desorption); assay type: physicochemical
Method: Approximately 10 mg of a sample was placed in an exclusively-used quartz-made holder and measured under the conditions of a temperature: 25° C., a measurement range: relative humidity 5 to 95%, a measurement interval: relative humidity 5%. Furthermore, the handling of the devices including data processing was conducted in accordance to the methods and procedures as indicated in each device. (Device: dynamic steam adsorption/desorption measuring device SGA-100, manufactured by VTI).
Measuring temperature: 25° C.; drying before measurement: not done; humidity at the beginning: 5% RH; maximum humidity: 95% RH; humidity at the end: 5% RH; step: 5% RH; equilibrium standard: 0.03 wt % in 5 min; maximum equilibrated time: 180 min; sampling interval: 20 sec; data recording interval: 1 min

[2] = Evaluation of stability (residual ratio of compound A after storage, HPLC-UV); assay type: physicochemical
Method: Evaluation of the decomposed product during storage: Approximately 5 mg of a sample was metered into a 10 mL glass mass flask, and a test was carried out in the following storage conditions.
Condition 1: 40° C.—relative humidity 75%—opening—3 months
Condition 2: 70° C.—light shielding—sealing—2 weeks
Condition 3: 25° C.—D65 (1000 lux)—sealing—2 weeks
A dissolution solvent was filled to a marked line in a mess flask including the sample after storage, the dissolved solution was taken as a sample solution, and the compound A in the sample solution was quantified. Furthermore, the detection of the compound A was carried out with UV at 254 nm and the handling of the devices including data processing was conducted in accordance to the methods and procedures as indicated in each device. (Device: LC-1100 Series manufactured by Agilent).
Further, the quantitative value indicates the residual ratio of the compound A after the test to the compound A before the test.

[3] = system: L5/L6 spinal nerve ligation models; test: L5/L6 spinal nerve ligation model of neuropathic pain, von Frey Test; assay type: in vivo, male SD rats
Method: The evaluation of an analgesic effect on neuropathic pain was performed according to the method of Kim et al. using L5/L6 spinal nerve ligation models. That is, the left L5 and L6 […] nerves of male SD rats were tightly ligated with a silk thread under pentobarbital anesthesia, and thereafter, the evaluation was performed. As the assessment of pain behavior, a von Frey Test on the plantar surface of the animals was employed (Pain, 1992, Vol. 50, p. 355-363). That is, the plantar surface of the operated limb of the nerve ligation rat was stimulated by using von Frey filaments until a withdrawal response was observed, and the lowest amount of force (g) required to elicit withdrawal response was defined as a pain threshold. The evaluation of compounds was performed in a period between 7 and 14 days after the operation in which a decrease in the threshold was stably observed. On the previous day of the evaluation of compounds, a von Frey Test was performed and the rats were grouped so as to minimize the variation in the mean value of pain threshold. Each of a solvent (vehicle) and a diluted solution obtained by diluting compound A hydrochloride as a compound A with a solvent so as to give a dose of 30 mg/kg was orally administered to rats in each group. Distilled water was used as a solvent. A pain threshold was measured at 1 hour after administration. […]

[4] = cited from earlier work
[5] = 25° C., relative humidity 5 to 95%
[6] = Condition 1: 40° C., relative humidity 75%, opening, 3 months
[7] = Condition 2: 70° C., light shielding, sealing, 2 weeks
[8] = Condition 3: 25° C., D65 (1000 lux), sealing, 2 weeks

C1=Cc2cccc(OC[C@H]3CNCCO3)c2C1.O=S(=O)(O)c1ccccc1 [Benzenesulfonate (α), (R)-2-[(1H-inden-7-yloxy)methyl]morpholine benzenesulfonate]
Weight change(%) [1, 5]: <0.1% | Quantitative Values (%) (residual ratio of the compound A) ([2]; benzenesulfonate): 101% and 100% and 94%

Br.C1=Cc2cccc(OC[C@H]3CNCCO3)c2C1 [Hydrobromide (α)]
Weight change(%) [1, 5]: 12.5% | Quantitative Values (%) (residual ratio of the compound A) [2, 6]: 98% | Quantitative Values (%) (residual ratio of the compound A) [2, 7]: 97% | Quantitative Values (%) (residual ratio of the compound A) [2, 8]: 69%

C1=Cc2cccc(OC[C@H]3CNCCO3)c2C1.O=S(=O)(O)c1ccccc1 [benzenesulfonate]
Weight change(%) [1]: substantially no weight change

C1=Cc2cccc(OCC3CNCCO3)c2C1 (single isomer, unassigned; (+)) [Hydrochloride, (+)-2-[(inden-7-yloxy)methyl]morpholine]
Relative humidity from which remarkably hygroscopic ([1]; 25° C., FIG. 1): around 75% | Deliquescence accompanying weight change [1, 5]: accompanied by deliquescence | Weight change(%) [1, 5]: 48.5 (accompanied % | Weight change(%) ([1]; 25° C., relative humidity 5 to 95%, listed as hydrochloride of the compound A): 50% | Relative humidity at which deliquescent ([1]; room temperature): approximately 75% | Quantitative Values (%) (residual ratio of the compound A) [2, 6]: 55% | Quantitative Values (%) (residual ratio of the compound A) [2, 7]: 100% | Quantitative Values (%) (residual ratio of the compound A) [2, 8]: 52% | Effect on pain threshold of operated side paw ([3]; 30 mg/kg orally): improved the pain threshold in the operated side of paw to the same level as that in the normal paw | % Effect (recovery ratio of pain threshold) ([3]; 30 mg/kg, p.o., 1 hour after administration, mean ± SEM, normal side paw 100%, operated side paw 0%): 94.5 ± 17.0 %

C1=Cc2cccc(OC[C@H]3CNCCO3)c2C1.O=S(=O)(O)c1ccccc1 [Benzenesulfonate (β)]
Weight change(%) [1, 5]: 1.2% | Quantitative Values (%) (residual ratio of the compound A) [2]: 95% and 84% and 74%

C1=Cc2cccc(OCC3CNCCO3)c2C1.Cl (racemic) [Indeloxazine hydrochloride]
Stability under normal conditions ([4]; room temperature, tightly closed, light shielding, 36 months): stable | Weight increase by hygroscopicity ([4]; stored at relative humidity 93% for 14 days at around room temperature): substantially no weight increase
